This is an account of results in patent US9738655B2, “Tetrahydroisoquinolines containing substituted azoles as factor XIa inhibitors” (BRISTOL-MYERS SQUIBB COMPANY, priority 2013, dated 2017).

pKi: −log10 of the molar value. Where a name gives a salt, the structure may show the parent alone. Read-outs that look alike come from different tables or passages of the source.

Experiment [1] has as its target purified human Factor XIa (Homo sapiens (Human), UniProt P03951). Briefly: Factor XIa enzyme inhibition assay (chromogenic substrate S-2366).
Experiment [2] addresses purified human plasma kallikrein (Homo sapiens (Human), UniProt P03952). Kind of experiment: Plasma kallikrein enzyme inhibition assay (chromogenic substrate S-2302). Type of experiment: biochemical.
The mark [3] stands for this setting: measured at 25° C. (no asterisk).
The mark [4] stands for this setting: read-out: Factor XIa Ki, measured at 25° C.
The mark [5] stands for this setting: read-out: Factor XIa Ki, measured at 25° C., TFA salt.
The mark [6] stands for this setting: measured at 25° C. (no asterisk), TFA salt.

Chain of purified human plasma kallikrein (P03952 391-638): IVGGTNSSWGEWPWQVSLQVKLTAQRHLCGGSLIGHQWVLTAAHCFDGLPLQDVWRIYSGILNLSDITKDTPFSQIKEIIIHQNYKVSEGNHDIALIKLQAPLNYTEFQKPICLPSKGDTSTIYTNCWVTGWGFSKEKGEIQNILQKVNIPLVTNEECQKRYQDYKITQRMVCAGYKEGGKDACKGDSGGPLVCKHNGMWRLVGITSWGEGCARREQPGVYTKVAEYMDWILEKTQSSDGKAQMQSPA
Chain of purified human plasma kallikrein (P03952 20-390 partner): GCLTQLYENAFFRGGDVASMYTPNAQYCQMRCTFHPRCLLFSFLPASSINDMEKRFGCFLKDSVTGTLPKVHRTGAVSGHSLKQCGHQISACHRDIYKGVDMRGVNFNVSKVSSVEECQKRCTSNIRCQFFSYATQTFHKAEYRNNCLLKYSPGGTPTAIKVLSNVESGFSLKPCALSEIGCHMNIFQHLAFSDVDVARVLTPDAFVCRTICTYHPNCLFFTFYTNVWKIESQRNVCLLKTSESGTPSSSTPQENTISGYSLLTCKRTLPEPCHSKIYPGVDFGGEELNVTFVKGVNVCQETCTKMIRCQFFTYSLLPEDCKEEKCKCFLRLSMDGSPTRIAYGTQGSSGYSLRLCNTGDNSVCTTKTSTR
Chain of purified human Factor XIa (P03951 388-625): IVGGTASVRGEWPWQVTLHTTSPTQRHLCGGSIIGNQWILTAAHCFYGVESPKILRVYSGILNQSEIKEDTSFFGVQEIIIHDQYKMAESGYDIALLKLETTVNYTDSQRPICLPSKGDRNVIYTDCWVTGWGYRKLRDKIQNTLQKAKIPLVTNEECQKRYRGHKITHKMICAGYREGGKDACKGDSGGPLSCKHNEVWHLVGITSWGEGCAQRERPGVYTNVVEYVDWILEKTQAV
Chain of purified human Factor XIa (P03951 19-387 partner): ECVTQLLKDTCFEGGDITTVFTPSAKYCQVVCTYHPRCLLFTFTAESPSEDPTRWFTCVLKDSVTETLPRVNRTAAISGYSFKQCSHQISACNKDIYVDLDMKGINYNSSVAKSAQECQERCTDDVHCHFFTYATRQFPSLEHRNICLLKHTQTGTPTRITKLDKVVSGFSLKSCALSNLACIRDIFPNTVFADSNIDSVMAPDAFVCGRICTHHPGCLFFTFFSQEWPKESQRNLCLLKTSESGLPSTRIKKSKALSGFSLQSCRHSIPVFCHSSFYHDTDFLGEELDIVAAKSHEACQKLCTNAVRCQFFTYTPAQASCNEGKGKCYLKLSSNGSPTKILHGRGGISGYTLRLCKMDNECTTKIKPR

As for `CN(C)CCNC(=O)c1ccc(-c2cccc3c2CCN(C(=O)c2cn(-c4cccc(Cl)c4F)nn2)[C@H]3C(=O)Nc2ccc(C(=O)O)cc2)cc1` [Example 11, (R)-4-(2-(1-(3-Chloro-2-fluorophenyl)-1H-1,2,3-triazole-4-carbonyl)-5-(4-((2-(dimethylamino)ethyl)carbamoyl)phenyl)-1,2,3,4-tetrahydroisoquinoline-1-carboxamido)benzoic acid TFA salt], the figures for the pKi in experiment [1] (read-out: Factor XIa Ki) and in experiment [2] (setting [3]) were 6.78 and 5.98, respectively.
Regarding `O=C(Nc1ccc(-c2ncc[nH]2)cc1)[C@H]1c2cccc(-c3cncnc3)c2CCN1C(=O)[C@H]1CC(c2cccc(Cl)c2F)=NO1` [Example 135, (R)-N-(4-(1H-imidazol-2-yl)phenyl)-2-((R)-3-(3-chloro-2-fluorophenyl)-4,5-dihydroisoxazole-5-carbonyl)-5-(pyrimidin-5-yl)-1,2,3,4-tetrahydroisoquinoline-1-carboxamide TFA salt], the negative-log Ki (pKi) in experiment [1] (setting [4]) is over 8.30; in experiment [2] (measured at 37° C. (*)), 6.40.
`CC(CO)(CO)COC(C)(C)C1CCN(c2cccc3c2CCN(C(=O)c2cnn(-c4cccc(Cl)c4F)c2)C3C(=O)Nc2ccc(C(=O)O)cc2)CC1` (stereo not drawn) [Example 225, 4-(2-(1-(3-Chloro-2-fluorophenyl)-1H-pyrazole-4-carbonyl)-5-(4-(2-(3-hydroxy-2-(hydroxymethyl)-2-methylpropoxy)propan-2-yl)piperidin-1-yl)-1,2,3,4-tetrahydroisoquinoline-1-carboxamido)benzoic acid, TFA salt]: the values for the pKi in experiment [1] (setting [4]) and in experiment [2] (setting [3]) were over 8.30 and 7.31, respectively.
As to `COC1CCN(c2cccc3c2CCN(C(=O)c2cn(-c4cccc(Cl)c4F)nn2)[C@@H]3C(=O)Nc2ccc(C(=O)O)cc2)CC1` [Example 314, (S)-4-(2-(1-(3-chloro-2-fluorophenyl)-1H-1,2,3-triazole-4-carbonyl)-5-(4-methoxypiperidin-1-yl)-1,2,3,4-tetrahydroisoquinoline-1-carboxamido)benzoic acid, TFA salt], the values for the pKi in experiment [1] (setting [4]) and in experiment [2] (setting [3]) were over 8.30 and 7.99, respectively.
Taken in the same sequence, the figures for `CN(C)C(=O)C1CCN(c2cccc3c2CCN(C(=O)c2cnn(-c4cccc(Cl)c4F)c2N)C3C(=O)Nc2ccc(C(=O)O)cc2)CC1` (stereo not drawn) [Example 317, 4-(2-(5-Amino-1-(3-chloro-2-fluorophenyl)-1H-pyrazole-4-carbonyl)-5-(4-(dimethylcarbamoyl)piperidin-1-yl)-1,2,3,4-tetrahydroisoquinoline-1-carboxamido)benzoic acid, TFA salt] were over 8.30 and 7.39.
Regarding `COC1CCN(c2cccc3c2CCN(C(=O)C2CC(c4c(C(F)(F)F)ccc(Cl)c4F)=NO2)C3C(=O)Nc2ccc(C(=O)O)cc2)CC1` (stereo not drawn) [Example 297, 4-(2-(3-(3-chloro-2-fluoro-6-(trifluoromethyl)phenyl)-4,5-dihydroisoxazole-5-carbonyl)-5-(4-methoxypiperidin-1-yl)-1,2,3,4-tetrahydroisoquinoline-1-carboxamido)benzoic acid, TFA salt], the pKi in experiment [1] (setting [5]) is 7.33; in experiment [2] (setting [6]), 5.89.
For the compound `CNC(=O)c1ccc(-c2cccc3c2CCN(C(=O)c2cn(-c4cccc(Cl)c4F)nn2)[C@@H]3C(=O)Nc2ccc(C(=O)OC)cc2)cn1` [Example 27, (S)-Methyl 4-(2-(1-(3-chloro-2-fluorophenyl)-1H-1,2,3-triazole-4-carbonyl)-5-(6-(methylcarbamoyl)pyridin-3-yl)-1,2,3,4-tetrahydroisoquinoline-1-carboxamido)benzoate, TFA salt], the values for the negative logarithm of the Ki (pKi) in experiment [1] (setting [4]) and in experiment [2] (measured at 37° C. (*)) were over 8.30 and 7.33, respectively.
For the compound `O=C(O)c1ccc(NC(=O)[C@H]2c3cccc(-c4cncnc4)c3CCN2C(=O)c2cn(-c3cccc(Cl)c3F)nn2)cc1` [Example 13, (R)-4-(2-(1-(3-Chloro-2-fluorophenyl)-1H-1,2,3-triazole-4-carbonyl)-5-(pyrimidin-5-yl)-1,2,3,4-tetrahydroisoquinoline-1-carboxamido)benzoic acid], the pKi is 7.92 in experiment [1] (setting [4]) and 6.37 in experiment [2] (setting [3]).
For `CN1CCN(c2cccc3c2CCN(C(=O)C2CC(c4cccc(Cl)c4F)=NO2)C3C(=O)Nc2ccc(C(=O)O)cc2)CC1=O` (single isomer, unassigned) [Example 280, 4-(2-(3-(3-chloro-2-fluorophenyl)-4,5-dihydroisoxazole-5-carbonyl)-5-(4-methyl-3-oxopiperazin-1-yl)-1,2,3,4-tetrahydroisoquinoline-1-carboxamido)benzoic acid, TFA salt], the figures for the pKi in experiment [1] (setting [5]) and in experiment [2] (setting [6]) were 7.44 and 6.55, respectively.
For the compound `COC1CCN(c2cccc3c2CCN(C(=O)c2cnn(-c4ccncc4)c2N)C3C(=O)Nc2ccc(C(=O)O)cc2)CC1` (racemic) [Example 313, 4-(2-(5-amino-1-(pyridin-4-yl)-1H-pyrazole-4-carbonyl)-5-(4-methoxypiperidin-1-yl)-1,2,3,4-tetrahydroisoquinoline-1-carboxamido)benzoic acid, TFA salt], the pKi in experiment [1] was 5.32; in experiment [2] (measured at 37° C. (*)), under 5.22.
On to `CO[C@@H]1CCN(c2cccc3c2CCN(C(=O)[C@H]2CC(c4cccc(Cl)c4F)=NO2)[C@H]3C(=O)Nc2ccc(C(=O)O)cc2)C1` [Example 299, 4-((R)-2-((R)-3-(3-chloro-2-fluorophenyl)-4,5-dihydroisoxazole-5-carbonyl)-5-((R)-3-methoxypyrrolidin-1-yl)-1,2,3,4-tetrahydroisoquinoline-1-carboxamido)benzoic acid, TFA salt], for which the results for the pKi in experiment [1] (setting [4]) and in experiment [2] (setting [3]) were 7.20 and 6.50, respectively.
As for `O=C(Nc1ccc(-c2ncc[nH]2)cc1)[C@@H]1c2cccc(-c3cncnc3)c2CCN1C(=O)c1cn(-c2cccc(Cl)c2F)nn1` [Example 138, (S)-N-(4-(1H-Imidazol-2-yl)phenyl)-2-(1-(3-chloro-2-fluorophenyl)-1H-1,2,3-triazole-4-carbonyl)-5-(pyrimidin-5-yl)-1,2,3,4-tetrahydroisoquinoline-1-carboxamide, TFA salt], the pKi was over 8.30 in experiment [1] (setting [4]) and 7.59 in experiment [2] (measured at 37° C. (*)).
Consider “4-(2-(3-Amino-1-(3-chloro-2-fluorophenyl)-1H-pyrazole-4-carbonyl)-5-(4-(2-(dimethylamino)ethoxy)piperidin-1-yl)-1,2,3,4-tetrahydroisoquinoline-1-carboxamido)benzoic acid, 2 TFA salt [Example 319]”, for which the negative logarithm of the Ki (pKi) in experiment [1] (setting [4]) is over 8.30; in experiment [2] (setting [3]) it was 8.19.
The corresponding values for `O=C(O)c1ccc(NC(=O)C2c3cccc(Br)c3CCN2C(=O)c2cn(-c3cccc(Cl)c3F)nn2)cc1` (stereo not drawn) [Example 110, 4-(5-Bromo-2-(1-(3-chloro-2-fluorophenyl)-1H-1,2,3-triazole-4-carbonyl)-1,2,3,4-tetrahydroisoquinoline-1-carboxamido)benzoic acid] are 7.14 and 7.64.
Taken in the same sequence, the figures for `CN(C)C(=O)C1CCN(c2cccc3c2CCN(C(=O)c2cn(-c4cccc(Cl)c4F)nn2)[C@H]3C(=O)Nc2ccc(C(=O)O)cc2)CC1` (single isomer, unassigned) [Example 57, TFA salt] were 7.48 and 6.56.
Consider `COC1CCN(c2cccc3c2CCN(C(=O)C2CC(=O)N(c4cccc(Cl)c4F)C2)C3C(=O)Nc2ccc(C(=O)O)cc2)CC1` (stereo not drawn) [Example 255, 4-(2-(1-(3-chloro-2-fluorophenyl)-5-oxopyrrolidine-3-carbonyl)-5-(4-methoxypiperidin-1-yl)-1,2,3,4-tetrahydroisoquinoline-1-carboxamido)benzoic acid, TFA salt], for which the pKi in experiment [1] (setting [5]) was 8.15; in experiment [2] (setting [6]) it was 6.66.
For the compound `COC1CCN(c2cccc3c2CCN(C(=O)C2CCN(c4cccc(Cl)c4F)C2)C3C(=O)Nc2ccc(C(=O)O)cc2)CC1` (stereo not drawn) [Example 307, 4-(2-(1-(3-Chloro-2-fluorophenyl)pyrrolidine-3-carbonyl) 5-(4-methoxypiperidin-1-yl)-1,2,3,4-tetrahydroisoquinoline-1-carboxamido)benzoic acid, TFA salt], the pKi in experiment [1] (setting [5]) was 6.78; in experiment [2] (setting [6]), 6.23.
On to `CN1CCN(c2cccc3c2CCN(C(=O)C2CC(c4cccc(Cl)c4)=NO2)C3C(=O)Nc2ccc(C(=O)O)cc2)CC1` (single isomer, unassigned) [Example 216, 4-(2-(3-(3-chlorophenyl)-4,5-dihydroisoxazole-5-carbonyl)-5-(4-methylpiperazin-1-yl)-1,2,3,4-tetrahydroisoquinoline-1-carboxamido)benzoic acid, 2 TFA salt], for which the pKi in experiment [1] is over 8.30; in experiment [2] (setting [3]), 9.44.
As to `CN(C)C(=O)C1CCN(c2cccc3c2CCN(C(=O)c2cn(-c4cccc(Cl)c4F)cn2)[C@@H]3C(=O)Nc2ccc(C(=O)O)cc2)CC1` (single isomer, unassigned) [Example 63, TFA salt], the results for the pKi in experiment [1] (setting [4]) and in experiment [2] (setting [3]) were over 8.30 and 8.57, respectively.
For the compound `COC1CCN(c2cccc3c2CCN(C(=O)c2cnn(-c4cccc(Cl)c4)c2C(F)(F)F)C3C(=O)Nc2ccc(C(=O)O)cc2)CC1` (stereo not drawn) [Example 150, 4-(2-(1-(3-chlorophenyl)-5-(trifluoromethyl)-1H-pyrazole-4-carbonyl)-5-(4-methoxypiperidin-1-yl)-1,2,3,4-tetrahydroisoquinoline-1-carboxamido)benzoic acid, TFA salt], the pKi in experiment [1] (setting [4]) is 5.58; in experiment [2] (measured at 37° C. (*)), under 5.22.
With `CO[C@@H]1CCN(c2cccc3c2CCN(C(=O)[C@H]2CC(c4cccc(Cl)c4F)=NO2)[C@@H]3C(=O)Nc2ccc(C(=O)O)cc2)C1` [Example 300, 4-((S)-2-((R)-3-(3-chloro-2-fluorophenyl)-4,5-dihydroisoxazole-5-carbonyl)-5-((R)-3-methoxypyrrolidin-1-yl)-1,2,3,4-tetrahydroisoquinoline-1-carboxamido)benzoic acid, TFA salt], the results for the pKi in experiment [1] (setting [4]) and in experiment [2] (setting [3]) were over 8.30 and 8.38, respectively.
